Measured values published in ChEMBL document CHEMBL3301451, “MMV Malaria Box gametocyte functional viability assay screening”.

Columns and labels:
Type in all cases: functional
Set-up in all cases: concentration or dose not given beside the values
[1] = system: Plasmodium berghei; test: MMV: P. berghei-infected blood was withdrawn from mice by cardiac pucture before being immediately added to ookinete culture medium containing test compounds. 26 hr later, GFP-positive ookinetes were identified and counted by automated microscopy. All compounds were tested in 4 independent experiments and data presented here is the mean.
[2] = system: Plasmodium falciparum; test: (§1) MMV: P. falciparum NF54 functionally mature Stage V gametocytes were incubated for 24 hr in the presence of the test compounds. Gamete formation was then triggered by addition of 2uM xantheurenic acid and temperature decrease to ~20C. Male gamete exflagellation was recorded and analysed by automated microscopy after 20 min. All compounds were tested in 4 independent experiments and data presented here is the mean.
[3] = system: Plasmodium falciparum; test: as §1, with “Female” for “Male”, “formation” for “exflagellation”, “24 hr later” for “and analysed”, “detection of surface labelling of female gametes with a Cy3-conjugated antibody reactive to Pfs25.” for “after 20 min.”; conditions: NF54, 24 h

Compound	inhibition [1] [%]	inhibition [2] [%]	inhibition [3] [%]
N=c1c2ccccc2nnn1-c1cccc(C(F)(F)F)c1	-9.695	51.2	7.15
COc1cccc(C2(C)Nc3ccccc3-c3nc4ccccc4n32)c1 (stereo not given)	6.874	-12.6	7.61
Cc1cc(C)cc(Nc2cc(C)nc3nc(C(F)(F)F)nn23)c1	-26.51	13.1	-17.3
COc1ccccc1C(=O)ON=C(N)Cc1cccc2ccccc12	-22.37	30.9	14.9
COc1ccccc1CNC(=O)CCn1c(=O)[nH]c2ccccc2c1=O	-17.49	13.3	-26.4
CN(C)c1ccc(N=Cc2ccc(N3CCOCC3)cc2)cc1	4.978	34.2	-21.3
COc1ccc2c(=O)cc(C(Cl)(Cl)Cl)oc2c1	-22.17	31.7	-23.2
O=C(NC1CCN(Cc2ccccc2)CC1)c1cc2nc(-c3ccc(Cl)s3)cc(C(F)(F)F)n2n1	28.86	-4.49	-40.5
CCCc1c(C)nc2ccccc2c1O	34.59	66.4	1.84
CCOC(=O)C1=C(c2ccccc2)N=c2sc(=Cc3cc(C)n(-c4ccc(F)cc4)c3C)c(=O)n2C1c1cccc(OC)c1OC (stereo not given)	-41.23	17.4	-0.952
Oc1c(C(Nc2ccccn2)c2cccc(Oc3ccccc3)c2)ccc2cccnc12 (stereo not given)	-4.794	-38.1	-17.6
COc1cc(C(=O)Nc2nc3c(cc4c5c(cccc53)CC4)s2)cc(OC)c1OC	5.808	-1.82	-22.3
CCOc1cc2c(cc1OCC)C(c1cc(Cl)c(O)c(OCC)c1)NCC2 (stereo not given)	-11.39	22.4	14.7
COc1ccc(-c2nc3cc(Cc4ccc5[nH]c(-c6ccc(OC)cc6)nc5c4)ccc3[nH]2)cc1	-5.308	28.3	-12.5
CC(C)(C)c1ccc(C(=O)Nc2nc3ccccc3s2)cc1	18.69	26.1	-4.04
COc1ccc(CCN2C(=O)c3[nH]nc(-c4cc(Cl)c(C)cc4O)c3C2c2ccccc2F)cc1 (stereo not given)	-13.65	-17.3	-34.2
Cc1ccc(S(=O)(=O)c2c(COC(=O)c3cccc(C)c3)c(-c3ccccc3)nn2C)cc1	-10.49	-0.37	-31.3
c1ccc2cc3c(Nc4ccc(N5CCOCC5)cc4)ccnc3cc2c1	12.53	13.2	-0.0777
O=c1cc(NC2CCN(CCCc3ccccc3)CC2)c2cc(Cl)ccc2o1	7.737	-9.89	-4.85
CCCCc1c(CCC)c(=N)c2ccccc2n1C.I	-7.021	-57	-25.6
CCCCCn1c(=N)n(CC(O)COc2cccc(C)c2)c2ccccc21.Cl (stereo not given)	6.769	-6.7	-30.6
Cn1c(C(=O)c2cccc3ccccc23)nc2ccccc21	-7.647	-24.7	-20.6

Compound	inhibition [1] [%]	inhibition [2] [%]	inhibition [3] [%]
Cc1cc(Nc2ccc(C)c(Cl)c2)n2nc(C(F)(F)F)nc2n1	-5.541	17.1	-44.8
Cc1ccc(-c2nc3ccccc3o2)cc1NCc1cc(Cc2ccccc2)ccc1O	-14.9	13.9	-8.19
Oc1ccc(C(=C(Cl)Cl)c2ccc(O)cc2)cc1	3.378	5.51	-25.3
O=C(Nc1nc(-c2ccccn2)cs1)c1ccccc1Br	2.456	-29.6	-22.2
Clc1ccc2[nH]c3c(NCCCN4CCOCC4)ncnc3c2c1	-16.54	21.6	-15.9
COc1ccc(C(O)(CCC(C)C)C(CN2CCOCC2)c2ccc(Cl)cc2)cc1.Cl (stereo not given)	5.473	-0.282	6.32
CCOc1ccccc1CNC(=O)C1c2ccccc2C(=O)N(CC(C)C)C1c1cccs1 (stereo not given)	3.43	15.7	-3.09
CCOc1ccc2nc(C)cc(Nc3ccc(N(C)C)cc3)c2c1.Cl	-13.58	-23.6	-42.3
O=c1c2c([nH]c3ccccc13)CCCC2	6.827	51	-24.5
O=C1c2ccccc2-c2nnc(-c3ccc(Br)cc3)cc21	9.656	19.4	-19.6
CCOC(=O)c1cnc2ccc(OC)cc2c1NCc1ccccc1	-6.823	-12.8	-40.9
CN1CCN(c2ccc(Nc3c4ccccc4nc4ccccc34)cc2)CC1	3.384	56.4	-3.1
CCOC(=O)c1cnc2ccc(OC)cc2c1Nc1ccc(N2CCN(C)CC2)cc1	-18.25	-13.9	-40
Cc1ccc(Nc2nc(NCCO)c3ccccc3n2)cc1C	-19.56	12.7	-25.6
COc1ccc(NC(=O)C2c3ccccc3C(=O)N(CC(C)C)C2c2cccs2)cc1Cl (stereo not given)	-15.31	8.99	-2.16
CCN1CCN(c2c(C(=O)c3ccccc3)cnc3cc(OC)c(OC)cc23)CC1	-4.456	-41.4	-6.16
COc1ccc(N2CCN(C(CNC(=O)C3CCCCC3)c3ccc4c(c3)OCO4)CC2)cc1 (stereo not given)	-5.593	29.7	-22.9
COc1cccc(C(=O)NC(c2ccc(C)cc2)c2cc(Cl)c3cccnc3c2O)c1 (stereo not given)	-20.64	19.5	0.843
CC(=O)NCCc1nc2ccccc2n1Cc1ccc(C(C)C)cc1	-8.216	-6.3	-12.8
Oc1c(CN2CCN(c3ccccc3F)CC2)cc(Br)c2cccnc12	34.85	5.41	31.5
Cc1[nH]c(-c2ccc(F)cc2)cc1C(=O)NC1CCN(Cc2ccccc2)CC1	-7.189	7.06	-3.53
Cc1cc(C)c2c(c1)OCN(Cc1ccccc1Cl)C2	-11.06	25.8	-10

Compound	inhibition [1] [%]	inhibition [2] [%]	inhibition [3] [%]
CCCCCCn1c(=N)n(CC(O)COc2cccc(C)c2)c2ccccc21.Cl (stereo not given)	1.158	-52.7	-17.6
CC(=O)Nc1nnc(SCc2c(C)cc(C(C)(C)C)cc2C)s1	4.957	17.4	5.39
CCc1c(C)c(=N)c2ccccc2n1C.I	-36.84	-21.8	-14.1
Cc1cc(=O)oc2c1ccc1oc(C(=O)c3ccccc3)c(C)c12	6.058	-11.5	-19.6
COc1ccccc1CNC(=O)C1c2ccccc2C(=O)N(CC(C)C)C1c1cccs1 (stereo not given)	-12.03	8.38	-15.9
COc1cc(-c2nc(-c3ccccc3)c(-c3ccccc3)[nH]2)cc(OC)c1O	-13.75	5	-41.1
O=C(NCC1Cc2cccc(-c3ccncc3)c2O1)c1csc2c1CCCC2 (stereo not given)	-13.38	20.6	-19.3
CCOc1cc(CNC(C)C(O)c2ccccc2)cc(Cl)c1OCC (stereo not given)	-7.956	11.6	-44.5
Cc1ccnc(NC(c2cccc(OCc3ccccc3)c2)c2ccc3cccnc3c2O)c1 (stereo not given)	-0.9408	11	-12.7
O=C(NC1CCCCC1)C(c1cccs1)N(CCc1ccccc1)C(=O)c1ccco1 (stereo not given)	-4.107	6.52	-15.1
CCOc1cc2c(cc1OCC)C(c1cc(C)c(O)c(C)c1)NCC2.Cl (stereo not given)	-16.67	-7.71	20.2
Nc1nc(Nc2cccc(F)c2)nc2ccccc12	16.83	-16.2	-41.8
COc1cccc(Cn2c(Oc3ccccc3)nc3c2c(=O)n(C)c(=O)n3C)c1	-11.71	35.5	1.84
CCCCOC(=O)c1ccc(Nc2cc(C)nc3ccc(OC)cc23)cc1	-4.495	-6.31	-6.56
CSC1=NC(=Nc2c(C)cccc2C)C2(CCC(C(C)(C)C)CC2)N1c1ccc(Cl)cc1 (stereo not given)	10.1	15.7	-11.8
O=C(c1ccccc1F)N(Cc1ccc(Cl)cc1)c1ccccn1	-2.284	20.3	-28.6
COc1ccc(C)c2sc(N(Cc3cccnc3)C(=O)c3ccc(C#N)cc3)nc12	2.145	-18.7	-37.8
COc1cccc(Nc2nc(N)c3ccccc3n2)c1.Cl	-11.42	-35.2	-36.4
Clc1ccc2c(N3CCCC3)ccnc2c1	-9.994	33.7	5.78
CSc1ccccc1C(=O)Nc1nc(-c2ccccn2)cs1	-9.487	20.5	-18.6
Cc1cccc(Nc2nc(N)c3ccccc3n2)c1.Cl	-25.03	-38.3	-22.2
